Patent publication US20020192262A1, “1'-Acetoxychavicol acetate for tuberculosis treatment” (National Science and Technology Development Agency, priority 2001, published 2002)

Experiments:
[1] = system: Mycobacterium tuberculosis H37Ra strain (ATCC 25166); test: Microplate Alamar Blue assay (MABA), growth inhibition; assay type: cell-based; details: two-fold serial dilution from 50 to 0.025 μg/ml, read-out: MIC against M. tuberculosis H37Ra
Experimental: Mycobacterium tuberculosis H37Ra strain (ATCC 25166) was grown in 100 ml of Middlebrook 7H9 broth supplemented with 0.2% glycerol, 1.0 gm/L of casitone, 10% OADC, and 0.05% Tween 80. The complete medium was referred to as 7H9GC-Tween. The bacteria were incubated in 500-ml flasks on a rotary shaker at 200 rpm and 37° C. until the optical density at 550 nm reached 0.4-0.5. The bacteria were washed twice with phosphate-buffered saline and then suspended in 20 ml of phosphate-buffered saline. The suspension was passed through an 8-μm-pore-size filter to eliminate clumps. The number of the bacteria in the filtrates was counted by plating the bacteria in Middlebrook 7H10 agar. The filtrates were stored at −80° C.
Anti-tuberculous testing was performed in a 96-well microplate as previously described (Collins, L. and Franzblau, S. G. 1997). […]
The plates were sealed with Parafilm and were incubated at 37° C. for 5 days. […] The results were recorded at 24 h post-reagent addition.
A blue color in the well was interpreted as no growth, reflecting the activity of the test compound in the well. A pink color was scored as growth and reflected the lack of activity of the test compound. A few wells appeared violet after 24 h of incubation, but they invariably changed to pink after another day of incubation and thus were scored as growth (while the adjacent blue wells remained blue). […]

Vero cells = details: African green monkey, 3 days
[2] = system: dermatophytic fungi such as Trichophyton mentagrophytes, Trichophyton rubrum, Trichophyton concentricum and Epidermophyton floccosum; details: cited from earlier work
[3] = system: Rhizopus stolonifer, Penicillium expansum, Aspergilus niger; details: compared with MIC for dermatophytic fungi; cited from earlier work
Candida albicans = details: cited from earlier work
Escherichia coli = details: cited from earlier work
Pseudomonas aeruginosa = details: cited from earlier work
Bacillus subtilis = details: cited from earlier work
Staphylococcus aureus = details: cited from earlier work
[4] = system: nitric oxide synthase production in RAW264 (mice macrophage) cell line; details: concentration of 250 (unit not given), cited from earlier work
[5] = system: tumor and cancer in mice experimental models; details: skin, bile duct, esophageal, large intestinal, oral cancer and liver tumor models; cited from earlier work
Ebstein-Barr virus = details: cited from earlier work
xanthine oxidase = xanthine oxidase (Homo sapiens, UniProt P47989); details: cited from earlier work
xanthine oxidase, sequence (P47989 whole entry, species assumed): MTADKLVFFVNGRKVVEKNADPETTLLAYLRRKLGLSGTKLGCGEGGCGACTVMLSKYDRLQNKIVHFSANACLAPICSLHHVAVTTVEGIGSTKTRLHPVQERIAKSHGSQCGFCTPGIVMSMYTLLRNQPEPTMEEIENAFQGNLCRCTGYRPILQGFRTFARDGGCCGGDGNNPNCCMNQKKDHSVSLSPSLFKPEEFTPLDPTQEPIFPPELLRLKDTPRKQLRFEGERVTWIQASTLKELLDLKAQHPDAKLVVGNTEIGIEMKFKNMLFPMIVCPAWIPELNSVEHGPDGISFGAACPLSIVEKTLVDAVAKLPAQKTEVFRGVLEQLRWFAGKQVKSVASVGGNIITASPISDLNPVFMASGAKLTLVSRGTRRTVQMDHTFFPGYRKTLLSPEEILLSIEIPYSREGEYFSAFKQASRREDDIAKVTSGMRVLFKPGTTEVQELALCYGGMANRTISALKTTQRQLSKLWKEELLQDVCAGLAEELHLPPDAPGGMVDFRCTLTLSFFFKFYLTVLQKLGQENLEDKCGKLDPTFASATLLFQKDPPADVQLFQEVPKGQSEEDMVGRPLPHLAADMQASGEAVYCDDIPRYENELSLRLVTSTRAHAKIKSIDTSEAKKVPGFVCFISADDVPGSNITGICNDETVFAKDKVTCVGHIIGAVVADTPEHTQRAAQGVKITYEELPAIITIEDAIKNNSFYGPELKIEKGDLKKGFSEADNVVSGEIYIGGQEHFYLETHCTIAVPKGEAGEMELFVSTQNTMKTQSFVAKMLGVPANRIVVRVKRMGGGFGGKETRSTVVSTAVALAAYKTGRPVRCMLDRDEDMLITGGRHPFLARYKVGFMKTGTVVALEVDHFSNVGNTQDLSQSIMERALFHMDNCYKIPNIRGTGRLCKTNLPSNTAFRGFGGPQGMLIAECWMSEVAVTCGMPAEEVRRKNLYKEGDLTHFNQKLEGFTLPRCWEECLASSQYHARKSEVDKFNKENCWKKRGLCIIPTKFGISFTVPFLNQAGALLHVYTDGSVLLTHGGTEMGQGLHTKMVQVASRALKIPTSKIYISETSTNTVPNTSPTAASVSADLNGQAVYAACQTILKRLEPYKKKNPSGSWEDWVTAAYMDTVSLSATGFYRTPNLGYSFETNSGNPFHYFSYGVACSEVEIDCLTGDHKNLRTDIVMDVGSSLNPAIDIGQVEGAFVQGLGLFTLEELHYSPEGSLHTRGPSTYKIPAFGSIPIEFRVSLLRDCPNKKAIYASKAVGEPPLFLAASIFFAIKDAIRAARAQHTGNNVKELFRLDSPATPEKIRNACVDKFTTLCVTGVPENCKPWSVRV

NADPH oxidase = details: cited from earlier work

**Q.** Which MIC [1] does the source give for `C=CC(OC(C)=O)c1ccc(OC(C)=O)cc1` (stereo not drawn) [1′-acetoxychavicol acetate, 1′-Acetoxychavicol acetate] here?
**A.** 0.1 µg/mL

**Q.** And the “toxic level against Vero cells (concentration giving less than half the viable cells of negative control)” value (Vero cells)?
**A.** 2.0 µg/mL

**Q.** What about the “minimal inhibitory concentrations (MIC) against dermatophytic fungi” value [2] of the same compound?
**A.** 50 to 250 µg/mL

**Q.** What about the “growth inhibition of Rhizopus stolonifer, Penicillium expansum, Aspergilus niger” value [3] of the same compound?
**A.** inhibited the growth of several other fungi

**Q.** And the “growth inhibition of Candida albicans” value (Candida albicans)?
**A.** could not inhibit the growth

**Q.** And the “growth inhibition of Escherichia coli” value (Escherichia coli)?
**A.** could not inhibit the growth

**Q.** And the “growth inhibition of Pseudomonas aeruginosa” value (Pseudomonas aeruginosa)?
**A.** could not inhibit the growth

**Q.** What about the “growth inhibition of Bacillus subtilis” value (Bacillus subtilis) of the same compound?
**A.** could not inhibit the growth

**Q.** What about the “growth inhibition of Staphylococcus aureus” value (Staphylococcus aureus) of the same compound?
**A.** could slightly inhibit the growth

**Q.** What about the “inhibition of nitric oxide synthase production, lipopolysaccharide stimulated” value ([4]; 100 ng/ml bacterial lipopolysaccharide) of the same compound?
**A.** could completely inhibit

**Q.** What about the “inhibition of nitric oxide synthase production, interferon-γ stimulated” value ([4]; 100 ng/ml interferon-γ) of the same compound?
**A.** 80%

**Q.** What about the “inhibition of tumor and cancer formation” value [5] of the same compound?
**A.** can inhibit the formation of many tumor and cancer

**Q.** What about the “inhibition of activation of tumor virus” value (Ebstein-Barr virus) of the same compound?
**A.** could inhibit the activation of tumor virus

**Q.** And the “inhibition of the function of xanthine oxidase” value (xanthine oxidase)?
**A.** could inhibit the function

**Q.** What about the “inhibition of the function of NADPH oxidase” value (NADPH oxidase) of the same compound?
**A.** could inhibit the function
